Measurements as given in ChEMBL document CHEMBL1201862, “PubChem BioAssay data set” (2004).
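Five compound concentrations were applied to cells in 96-well plates for 48 hours; endpoints were derived by simple linear interpolation of the resulting dose-response curve. GI50 marks 50% less growth.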 Calls of active or inactive are those of the source. No stated cut-off is given here; in the data, active = GI50 up to about 1.1 µM and inactive = higher.

What was measured:
Experiment in all cases: NCI anticancer screen, dose series, 48 h
PC-3 = tested on: PC-3
LOX IMVI = tested on: LOX IMVI
SN12C = tested on: SN12C
BT-549 = tested on: BT-549
KM12 = tested on: KM12
SF-268 = tested on: SF-268
COLO 205 = tested on: COLO 205
HT-29 = tested on: HT-29
NCI-H226 = tested on: NCI-H226
NCI-H522 = tested on: NCI-H522
NCI-H23 = tested on: NCI-H23
SK-MEL-5 = tested on: SK-MEL-5
TK-10 = tested on: TK-10
EKVX = tested on: EKVX
ACHN = tested on: ACHN
SNB-19 = tested on: SNB-19
M14 = tested on: M14
MDA-MB-231 = tested on: MDA-MB-231
SK-OV-3 = tested on: SK-OV-3
SNB-75 = tested on: SNB-75

Measured: GI50

COC(=O)C1=C(C(=O)OC)SC(=C2SCSC3=C2SC(C(=O)OC)=C(C(=O)OC)C32SC3=C(CCCC3)S2)S1
inactive: PC-3 > 100 µM | LOX IMVI > 100 µM | SN12C > 100 µM | BT-549 > 100 µM | KM12 > 100 µM | SF-268 > 100 µM | COLO 205 > 100 µM | HT-29 > 100 µM | NCI-H226 > 100 µM | NCI-H522 > 100 µM | NCI-H23 > 100 µM | SK-MEL-5 > 100 µM | TK-10 32.4 µM | EKVX > 100 µM | ACHN 62.2 µM | SNB-19 55.7 µM | M14 > 100 µM | MDA-MB-231 95.3 µM | SK-OV-3 > 100 µM | SNB-75 13.9 µM

CN(NC(=O)CCCl)C1=NCCN1
inactive: PC-3 > 100 µM | LOX IMVI > 100 µM | SN12C > 100 µM | BT-549 > 100 µM | KM12 > 100 µM | SF-268 > 100 µM | COLO 205 > 100 µM | HT-29 > 100 µM | NCI-H226 > 100 µM | NCI-H522 > 100 µM | NCI-H23 > 100 µM | SK-MEL-5 > 100 µM | TK-10 > 100 µM | EKVX > 100 µM | ACHN > 100 µM | SNB-19 > 100 µM | M14 > 100 µM | MDA-MB-231 > 100 µM | SK-OV-3 > 100 µM | SNB-75 > 100 µM

Cc1cc(S(=O)(=O)Nc2nc(Nc3ccc4ccccc4c3)n[nH]2)c(S)cc1Cl
inactive: PC-3 33.6 µM | LOX IMVI 45.6 µM | SN12C 48.2 µM | BT-549 75.9 µM | KM12 25.4 µM | SF-268 72.1 µM | COLO 205 57.8 µM | HT-29 > 100 µM | NCI-H226 34.1 µM | NCI-H522 30.3 µM | NCI-H23 43 µM | SK-MEL-5 22.5 µM | TK-10 > 100 µM | EKVX > 100 µM | ACHN 84.9 µM | SNB-19 49.3 µM | M14 46.8 µM | MDA-MB-231 92.9 µM | SK-OV-3 46.2 µM | SNB-75 43.3 µM
